For the assay, the system named is B6C3F1 mice, ip Sarcoma M5076, median survival T/C. The assay is described as follows: NCI In Vivo Anticancer Drug Screen. Data for tumor model Sarcoma M5076 (intraperitoneal) in B6C3F1 mice. The following applies: endpoint: median survival time, schedule: Q04DX004 (ip), higher = longer survival. An outline of the steps:
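Transplantable tumour in mice; compound-treated vs vehicle-treated groups. Read-out: survival. Value = treated/control ratio.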

Where [1] appears, read: dose: 25.0 mg/kg/injection, vehicle: saline with Tween-80.
Where [2] appears, read: dose: 50.0 mg/kg/injection, vehicle: saline with Tween-80.
Setting [3] is: dose: 100.0 mg/kg/injection, vehicle: saline with Tween-80.
Setting [4] is: dose: 12.5 mg/kg/injection, vehicle: Klucel (hydroxypropylcellulose) (HPC).
Setting [5] is: dose: 25.0 mg/kg/injection, vehicle: Klucel (hydroxypropylcellulose) (HPC).
Setting [6] is: dose: 50.0 mg/kg/injection, vehicle: Klucel (hydroxypropylcellulose) (HPC).
The mark [7] stands for this setting: dose: 100.0 mg/kg/injection, vehicle: Klucel (hydroxypropylcellulose) (HPC).
The mark [8] stands for this setting: dose: 75.0 mg/kg/injection, vehicle: saline with Tween-80.
[9] abbreviates: dose: 200.0 mg/kg/injection, vehicle: Klucel (hydroxypropylcellulose) (HPC).
Setting [10] is: dose: 400.0 mg/kg/injection, vehicle: Klucel (hydroxypropylcellulose) (HPC).
[11] abbreviates: dose: 50.0 mg/kg/injection, vehicle: saline.
[12] abbreviates: dose: 100.0 mg/kg/injection, vehicle: saline.
The mark [13] stands for this setting: dose: 200.0 mg/kg/injection, vehicle: saline.
[14] abbreviates: dose: 18.75 mg/kg/injection, vehicle: Klucel (hydroxypropylcellulose) (HPC).
[15] abbreviates: dose: 37.5 mg/kg/injection, vehicle: Klucel (hydroxypropylcellulose) (HPC).
Where [16] appears, read: dose: 75.0 mg/kg/injection, vehicle: Klucel (hydroxypropylcellulose) (HPC).
[17] abbreviates: dose: 150.0 mg/kg/injection, vehicle: Klucel (hydroxypropylcellulose) (HPC).
The mark [18] stands for this setting: dose: 200.0 mg/kg/injection, vehicle: saline with Tween-80.
Where [19] appears, read: dose: 150.0 mg/kg/injection, vehicle: saline with Tween-80.
Setting [20] is: dose: 300.0 mg/kg/injection, vehicle: saline with Tween-80.

Values joined by “and” are separate entries in the source; they are usually repeats but may differ in a detail not shown here. Equal values may be shown once. Toxic doses and inconclusive results are not listed.

For the compound `N#Cc1c(N)[nH]c2ccc(Sc3ccccc3)cc12`, the T/C by setting is: (dose: 6.25 mg/kg/injection, vehicle: saline with Tween-80) 101 % of control; (dose: 12.5 mg/kg/injection, vehicle: saline with Tween-80) 112 % of control; (dose: 15.0 mg/kg/injection, vehicle: saline with Tween-80) 108 % of control; under setting [1], 109 % of control; (dose: 30.0 mg/kg/injection, vehicle: saline with Tween-80) 97 % of control; (dose: 36.0 mg/kg/injection, vehicle: saline with Tween-80) 104 % of control. The T/C runs as follows: under setting [2], 114 % of control; (dose: 60.0 mg/kg/injection, vehicle: saline with Tween-80) 95 % of control and 104 % of control; under setting [3], 116 % of control; (dose: 120.0 mg/kg/injection, vehicle: saline with Tween-80) 110 % of control; (dose: 240.0 mg/kg/injection, vehicle: saline with Tween-80) 113 % of control.

In the case of `O=C1c2cccc(NCCCNCCO)c2C(=O)c2cccc(NCCCNCCO)c21`, the T/C runs as follows: (dose: 12.5 mg/kg/injection, vehicle: acid diluted with saline) 116 % of control; (dose: 25.0 mg/kg/injection, vehicle: acid diluted with saline) 99 % of control; (dose: 50.0 mg/kg/injection, vehicle: acid diluted with saline) 91 % of control.

Regarding `CN(C)N=Nc1ccccc1`, the T/C is, setting by setting: under setting [4], 113 % of control; under setting [5], 159 % of control; under setting [6], 187 % of control; under setting [7], 156 % of control.

As for `COc1cc(C(CC(C)=O)c2cc3c(cc2OC(C)=O)OCO3)cc(OC)c1OC` (configuration not stated) (tested in a mixture with another compound), the T/C runs as follows: (dose: 27.0 mg/kg/injection, vehicle: saline with Tween-80) 100 % of control; (dose: 45.0 mg/kg/injection, vehicle: saline with Tween-80) 101 % of control and 103 % of control; under setting [8], 111 % of control and 119 % of control; (dose: 125.0 mg/kg/injection, vehicle: saline with Tween-80) 119 % of control; (dose: 208.3 mg/kg/injection, vehicle: saline with Tween-80) 124 % of control.

As to `CCC1=C(c2cccc(OC(C)=O)c2)C(C)c2ccc(OC(C)=O)cc21` (configuration not stated), the T/C was 93 % of control (dose: 6.25 mg/kg/injection, vehicle: Klucel (hydroxypropylcellulose) (HPC)); 93 % of control under setting [4]; 100 % of control under setting [5]; 116 % of control under setting [6]; 105 % of control under setting [7]; 91 % of control under setting [9].

As to `CNC(=S)SC1=NS(=O)(=O)c2ccccc2N1`, the T/C runs as follows: under setting [6], 105 % of control; (dose: 62.0 mg/kg/injection, vehicle: Klucel (hydroxypropylcellulose) (HPC)) 102 % of control; under setting [7], 103 % of control; (dose: 104.0 mg/kg/injection, vehicle: Klucel (hydroxypropylcellulose) (HPC)) 103 % of control; (dose: 173.0 mg/kg/injection, vehicle: Klucel (hydroxypropylcellulose) (HPC)) 113 % of control; under setting [9], 96 % of control. Moreover, the T/C under setting [10] was 109 % of control.

For the compound `N#CC1C(=O)NC(=S)NC1c1ccc2c(c1)CCC2` (configuration not stated), the T/C reads like this: under setting [11], 103 % of control; under setting [12], 97 % of control; under setting [13], 102 % of control.

On to `O=NNc1cnccn1`, for which the T/C is, setting by setting: (dose: 6.25 mg/kg/injection, vehicle: water) 107 % of control; (dose: 12.5 mg/kg/injection, vehicle: water) 118 % of control and 123 % of control; (dose: 50.0 mg/kg/injection, vehicle: water) 150 % of control and 155 % of control; (dose: 100.0 mg/kg/injection, vehicle: water) 196 % of control.

`COc1ccc(-c2nnc3cc(C)n4nnnc4n23)cc1OC`: the T/C under setting [14] was 99 % of control; the T/C under setting [15] is 94 % of control; the T/C under setting [16] is 98 % of control; the T/C under setting [17] is 99 % of control; the T/C (dose: 300.0 mg/kg/injection, vehicle: Klucel (hydroxypropylcellulose) (HPC)) is 91 % of control.

Regarding `CCC1C(C#N)C(=O)NC(=O)C1C#N` (configuration not stated), the T/C runs as follows: under setting [6], 104 % of control; under setting [7], 106 % of control; under setting [9], 107 % of control; under setting [10], 104 % of control; (dose: 800.0 mg/kg/injection, vehicle: Klucel (hydroxypropylcellulose) (HPC)) 110 % of control.

As to `N#CCS(=O)(=O)c1cccc[n+]1[O-]`, the T/C is 99 % of control under setting [2], 99 % of control under setting [3] and 93 % of control under setting [18].

`CC(O)(CSc1ccccc1)CSc1ccccc1` (tested in a mixture with another compound): the T/C (dose: 18.75 mg/kg/injection, vehicle: saline with Tween-80) was 104 % of control; the T/C (dose: 37.5 mg/kg/injection, vehicle: saline with Tween-80) was 98 % of control; the T/C under setting [8] is 100 % of control; the T/C under setting [19] is 101 % of control; the T/C under setting [20] is 100 % of control.

For `CC1C(c2ccccc2)OC(N2CCOCC2)C(C)(C)CN1C` (configuration not stated), the T/C runs as follows: under setting [19], 101 % of control; under setting [20], 104 % of control; (dose: 600.0 mg/kg/injection, vehicle: saline with Tween-80) 99 % of control.

Turning to `C/C(=C\c1ccccc1)C1C(C#N)C(=O)NC(=O)C1C#N` (configuration not stated), the T/C by setting is: under setting [6], 100 % of control; under setting [7], 113 % of control; under setting [9], 106 % of control; under setting [10], 106 % of control.

Regarding `NCCCC(N)(C(=O)O)C(F)F` (configuration not stated), the T/C is, setting by setting: under setting [11], 96 % of control; under setting [12], 99 % of control; under setting [13], 99 % of control; (dose: 400.0 mg/kg/injection, vehicle: saline) 99 % of control; (dose: 800.0 mg/kg/injection, vehicle: saline) 102 % of control.

With `CC(=O)N1CN=C2Sc3ccccc3N2C1`, the T/C by setting is: under setting [14], 102 % of control; under setting [15], 111 % of control; under setting [16], 103 % of control; under setting [17], 102 % of control.

With `CN1CCOc2c1cnn(CCO)c2=O`, the T/C reads like this: under setting [1], 105 % of control; under setting [2], 96 % of control; under setting [3], 94 % of control; under setting [18], 99 % of control; (dose: 400.0 mg/kg/injection, vehicle: saline with Tween-80) 99 % of control.

As to `NC12CC3CC(CC(C3)C1)C2`, the T/C runs as follows: under setting [1], 100 % of control; under setting [2], 94 % of control.

On to `Cc1ccc(C(=O)NC2C(=O)NC(C(C)C)C(=O)N3CCCC3C(=O)N(C)CC(=O)N(C)C(C(C)C)C(=O)OC2C)c2c1Oc1c(c(C(=O)NC3C(=O)NC(C(C)C)C(=O)N4CCCC4C(=O)N(C)CC(=O)N(C)C(C(C)C)C(=O)OC3C)c3nc(-c4ccccc4)c(=O)oc3c1C)N2` (configuration not stated), for which the T/C (dose: 0.25 mg/kg/injection, vehicle: water) is 101 % of control and 113 % of control; the T/C (dose: 0.5 mg/kg/injection, vehicle: water) was 99 % of control; the T/C (dose: 1.0 mg/kg/injection, vehicle: water) was 114 % of control.
